Activity calls are given as the source filed them.
What was measured:
[1] = Luminescence Cell-Based Dose Confirmation HTS to Identify Activators of 5'UTR Stem-Loop Driven Alpha-Synuclein mRNA Translation in H4 Neuroglioblastoma Cells. [Related pubchem assays: 1829 (Project Summary), 1814 (Primary HTS)]; assay type: functional
[2] = Luminescence Cell-Based Dose Response HTS to Identify Activators of Luciferase Translation or Activity in H4 […] Cells. [Related pubchem assays: 1829 (Project Summary), 1814 (Primary HTS)]; assay type: functional
H4 = experiment: Luminescence Cell-Based Dose Response HTS to Identify Activators of 5'UTR Stem-Loop Driven Prion Protein mRNA Translation in H4 Neuroglioblastoma Cells. [Related pubchem assays: 1829 (Project Summary), 1814 (Primary HTS)]; assay type: functional; conditions: Homo sapiens
[3] = general cell-killing toxicity readout – plate reader, dry powder samples, cytotoxicity control for PAX8 inhibitor project, dose response (AID 743021); assay type: functional, cell-based
[4] = reduced cellular PGC1a acetyl-lysine signal – cell-based, cherry-picked samples, dose response (AID 720514); assay type: functional;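 also: potency may reflect raised or lowered acetylation signal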
[5] = viability loss in A549 lung cancer cells – cell-based, cherry-picks, […], cytotoxicity control, dose response (AID 1053119); assay type: functional
[6] = biological target: 26S proteasome non-ATPase regulatory subunit 14 (Homo sapiens, UniProt O00487); experiment: inhibition of proteasome subunit RPN11 – biochemical, fluorescence polarization, uHTS hits, confirmation (AID 602368); assay type: functional
Chain of 26S proteasome non-ATPase regulatory subunit 14 (O00487 whole entry): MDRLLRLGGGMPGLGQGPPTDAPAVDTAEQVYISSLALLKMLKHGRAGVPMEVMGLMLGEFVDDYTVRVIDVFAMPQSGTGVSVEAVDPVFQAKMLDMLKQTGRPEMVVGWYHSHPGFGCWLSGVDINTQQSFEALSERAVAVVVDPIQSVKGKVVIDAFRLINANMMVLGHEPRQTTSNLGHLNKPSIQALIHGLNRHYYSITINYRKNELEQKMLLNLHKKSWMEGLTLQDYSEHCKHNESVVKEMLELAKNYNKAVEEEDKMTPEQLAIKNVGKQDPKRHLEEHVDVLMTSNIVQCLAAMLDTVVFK

[7] = biological target: 72 kDa type IV collagenase (Homo sapiens, UniProt P08253); experiment: Dose Response validation of uHTS RPN11 inhibitor hits using a MMP-2 Fluorescence assay.; assay type: functional
Chain of 72 kDa type IV collagenase (P08253 whole entry): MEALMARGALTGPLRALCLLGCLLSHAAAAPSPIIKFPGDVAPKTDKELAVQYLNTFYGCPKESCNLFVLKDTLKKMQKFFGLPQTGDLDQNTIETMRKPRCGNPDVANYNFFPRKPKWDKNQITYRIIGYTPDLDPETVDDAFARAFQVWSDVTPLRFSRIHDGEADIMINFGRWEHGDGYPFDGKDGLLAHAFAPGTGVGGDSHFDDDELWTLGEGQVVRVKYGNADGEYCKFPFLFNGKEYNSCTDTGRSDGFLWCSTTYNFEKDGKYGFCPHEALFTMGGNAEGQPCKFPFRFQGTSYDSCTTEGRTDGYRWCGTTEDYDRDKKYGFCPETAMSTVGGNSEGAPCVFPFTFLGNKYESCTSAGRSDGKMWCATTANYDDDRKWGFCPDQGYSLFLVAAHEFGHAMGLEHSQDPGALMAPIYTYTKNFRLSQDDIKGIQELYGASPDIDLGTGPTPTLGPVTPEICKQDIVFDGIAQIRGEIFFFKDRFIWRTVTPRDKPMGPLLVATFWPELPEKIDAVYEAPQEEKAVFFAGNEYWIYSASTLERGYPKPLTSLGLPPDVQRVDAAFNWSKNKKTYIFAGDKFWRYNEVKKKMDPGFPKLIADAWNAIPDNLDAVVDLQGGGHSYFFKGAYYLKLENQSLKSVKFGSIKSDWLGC

Prothrombin = Prothrombin (Bos taurus, UniProt P00735); experiment: thrombin protease inhibitors – biochemical, fluorescence polarization, uHTS hits, dose response (AID 602369); assay type: functional
[8] = Trypanosoma cruzi growth suppression in host cells – NIH3T3 host cells, beta-gal luminescence, confirmation (AID 2044); assay type: functional, cell-based;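 also: intracellular parasites grown in NIH/3T3 mouse fibroblasts as host cells; luminescent beta-galactosidase reporter signal from transgenic T. cruzi replicating inside host cells; inhibitors lower the luminescence signal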
[9] = NIH3T3 cell viability loss – ATP luminescence, mouse fibroblasts, counter-screen, dose response (AID 2010); assay type: functional, cell-based;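 also: cells exposed to compound for about 90 hours before reading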
[10] = biological target: Heat shock protein HSP 90-alpha (Homo sapiens, UniProt P07900); assay type: functional, organism-based
[11] = biological target: Arf-GAP with SH3 domain, ANK repeat and PH domain-containing protein 1 (Homo sapiens, UniProt Q9ULH1); assay type: functional;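 also: biochemical fluorescence polarization dose–response screen measuring inhibition of ASAP1; ASAP1 GAP domain stimulating GTP hydrolysis by truncated human ARF1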
Chain of Arf-GAP with SH3 domain, ANK repeat and PH domain-containing protein 1 (Q9ULH1 whole entry, the tested form may be a part): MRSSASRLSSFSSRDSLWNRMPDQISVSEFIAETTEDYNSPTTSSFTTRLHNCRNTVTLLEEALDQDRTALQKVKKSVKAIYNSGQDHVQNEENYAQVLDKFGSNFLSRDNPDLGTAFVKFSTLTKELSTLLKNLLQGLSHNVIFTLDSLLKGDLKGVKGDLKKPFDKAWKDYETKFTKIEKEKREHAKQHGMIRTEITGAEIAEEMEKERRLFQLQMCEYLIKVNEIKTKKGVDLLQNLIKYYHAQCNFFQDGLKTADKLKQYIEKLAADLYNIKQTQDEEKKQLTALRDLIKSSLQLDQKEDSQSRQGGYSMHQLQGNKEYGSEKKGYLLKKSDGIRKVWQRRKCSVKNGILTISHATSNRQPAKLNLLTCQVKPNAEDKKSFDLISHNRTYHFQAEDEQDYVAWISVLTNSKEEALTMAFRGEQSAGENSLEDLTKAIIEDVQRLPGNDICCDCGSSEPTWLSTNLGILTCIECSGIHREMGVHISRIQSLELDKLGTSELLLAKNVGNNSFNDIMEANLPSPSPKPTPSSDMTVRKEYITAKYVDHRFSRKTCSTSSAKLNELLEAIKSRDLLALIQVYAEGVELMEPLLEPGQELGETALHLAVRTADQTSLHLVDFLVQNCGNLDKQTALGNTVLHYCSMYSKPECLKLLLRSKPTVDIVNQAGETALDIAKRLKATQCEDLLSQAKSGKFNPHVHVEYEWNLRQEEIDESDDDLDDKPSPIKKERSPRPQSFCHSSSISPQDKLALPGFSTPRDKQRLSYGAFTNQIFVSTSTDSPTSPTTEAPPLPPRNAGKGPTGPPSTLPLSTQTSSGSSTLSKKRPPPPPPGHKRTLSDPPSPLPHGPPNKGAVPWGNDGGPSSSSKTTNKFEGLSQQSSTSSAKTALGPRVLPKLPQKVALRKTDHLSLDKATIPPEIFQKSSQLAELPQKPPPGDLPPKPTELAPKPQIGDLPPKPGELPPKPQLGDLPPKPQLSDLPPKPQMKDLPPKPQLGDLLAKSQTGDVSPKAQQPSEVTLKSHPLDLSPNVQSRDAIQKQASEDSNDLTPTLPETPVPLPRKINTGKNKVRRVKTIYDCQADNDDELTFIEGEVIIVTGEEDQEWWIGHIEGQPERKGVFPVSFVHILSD

[12] = Luminescence-based cell-based high throughput dose response assay to identify activators of the DAF-12 from the parasite S. stercoralis (ssDAF-12).; assay type: functional
[13] = biological target: Adenosylmethionine-8-amino-7-oxononanoate aminotransferase (Mycobacterium tuberculosis, UniProt P9WQ81); experiment: Mycobacterium tuberculosis BioA enzyme inhibitor Measured in Biochemical System Using Plate Reader - 2163-02_Inhibitor_Dose_CherryPick_Activity.; assay type: functional, Mycobacterium tuberculosis UT205
Chain of Adenosylmethionine-8-amino-7-oxononanoate aminotransferase (P9WQ81 whole entry): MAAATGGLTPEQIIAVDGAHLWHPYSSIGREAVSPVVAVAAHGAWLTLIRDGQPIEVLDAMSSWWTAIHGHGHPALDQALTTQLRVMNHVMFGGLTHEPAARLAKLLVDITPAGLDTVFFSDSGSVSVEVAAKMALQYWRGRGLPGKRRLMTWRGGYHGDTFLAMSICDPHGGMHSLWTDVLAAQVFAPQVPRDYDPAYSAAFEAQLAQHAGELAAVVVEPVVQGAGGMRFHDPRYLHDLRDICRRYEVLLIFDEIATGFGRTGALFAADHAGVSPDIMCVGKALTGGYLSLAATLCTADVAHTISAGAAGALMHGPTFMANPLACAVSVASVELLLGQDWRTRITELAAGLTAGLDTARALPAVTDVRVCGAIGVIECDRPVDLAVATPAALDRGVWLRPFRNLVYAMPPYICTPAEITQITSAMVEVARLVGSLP

[14] = biological target: T1, Aryl hydrocarbon receptor (Homo sapiens, UniProt P35869); conditions: Potency;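 also: confirmatory quantitative high-throughput screen measuring activation of the AhR signaling pathway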
T1 sequence (P35869 whole entry): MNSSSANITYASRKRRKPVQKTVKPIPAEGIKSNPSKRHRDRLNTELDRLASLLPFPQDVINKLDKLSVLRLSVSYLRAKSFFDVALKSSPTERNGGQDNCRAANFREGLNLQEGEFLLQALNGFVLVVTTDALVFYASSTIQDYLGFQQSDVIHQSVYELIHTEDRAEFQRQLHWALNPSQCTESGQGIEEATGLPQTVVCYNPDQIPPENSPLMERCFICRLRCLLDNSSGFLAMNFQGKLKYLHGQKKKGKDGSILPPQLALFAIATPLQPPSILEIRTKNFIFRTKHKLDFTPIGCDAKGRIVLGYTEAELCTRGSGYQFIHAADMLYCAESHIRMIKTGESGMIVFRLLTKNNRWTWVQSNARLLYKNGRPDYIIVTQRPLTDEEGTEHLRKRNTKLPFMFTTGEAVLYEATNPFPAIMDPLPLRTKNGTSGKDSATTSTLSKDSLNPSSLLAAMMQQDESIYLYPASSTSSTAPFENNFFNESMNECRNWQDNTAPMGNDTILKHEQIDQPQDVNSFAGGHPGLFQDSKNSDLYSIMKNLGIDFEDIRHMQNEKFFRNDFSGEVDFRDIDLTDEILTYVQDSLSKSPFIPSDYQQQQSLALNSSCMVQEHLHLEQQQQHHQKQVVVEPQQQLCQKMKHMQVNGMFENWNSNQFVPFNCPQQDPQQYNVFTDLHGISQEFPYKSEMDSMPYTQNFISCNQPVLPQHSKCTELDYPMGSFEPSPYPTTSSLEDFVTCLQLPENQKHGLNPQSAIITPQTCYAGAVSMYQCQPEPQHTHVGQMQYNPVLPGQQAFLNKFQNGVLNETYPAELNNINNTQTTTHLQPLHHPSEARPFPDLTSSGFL

Large T antigen = Large T antigen (Simian virus 40, UniProt P03070); assay type: functional, Betapolyomavirus macacae;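 also: Confirmatory-stage PubChem screen for compounds that inhibit SV40 T antigen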
Vero = experiment: viability of Vero cells under compound – cytotoxicity control for flavivirus capping enzyme inhibitors (AID 588742); assay type: functional; conditions: Chlorocebus sabaeus
[15] = biological target: T2, Disintegrin and metalloproteinase domain-containing protein 17 (Homo sapiens, UniProt P78536); experiment: exosite inhibitors of ADAM17, dose response, biochemical (AID 743260)
T2 sequence (P78536 whole entry, the tested form may be a part): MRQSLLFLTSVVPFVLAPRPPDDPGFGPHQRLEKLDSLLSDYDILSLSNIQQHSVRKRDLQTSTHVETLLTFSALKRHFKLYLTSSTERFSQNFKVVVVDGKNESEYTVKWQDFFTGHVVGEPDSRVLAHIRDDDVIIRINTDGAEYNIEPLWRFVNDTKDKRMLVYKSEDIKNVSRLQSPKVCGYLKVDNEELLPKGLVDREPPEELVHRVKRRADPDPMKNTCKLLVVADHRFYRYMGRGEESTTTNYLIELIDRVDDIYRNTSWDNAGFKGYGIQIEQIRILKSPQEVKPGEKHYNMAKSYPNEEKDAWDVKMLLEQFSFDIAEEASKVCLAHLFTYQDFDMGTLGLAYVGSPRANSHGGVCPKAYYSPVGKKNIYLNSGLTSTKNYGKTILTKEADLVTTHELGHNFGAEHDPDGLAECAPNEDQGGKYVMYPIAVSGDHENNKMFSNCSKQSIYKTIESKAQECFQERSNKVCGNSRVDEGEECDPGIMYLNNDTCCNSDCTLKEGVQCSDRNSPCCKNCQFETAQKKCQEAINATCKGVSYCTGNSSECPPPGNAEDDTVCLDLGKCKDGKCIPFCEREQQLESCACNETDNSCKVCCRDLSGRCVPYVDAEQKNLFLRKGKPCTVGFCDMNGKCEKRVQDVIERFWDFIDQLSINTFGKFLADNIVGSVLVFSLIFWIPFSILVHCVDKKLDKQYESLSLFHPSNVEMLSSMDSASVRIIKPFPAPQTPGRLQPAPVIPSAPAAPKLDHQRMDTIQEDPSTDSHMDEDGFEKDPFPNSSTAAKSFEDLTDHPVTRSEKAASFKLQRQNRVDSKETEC

[16] = inhibition of ADAM10 peptide cleavage – biochemical, FRET peptide substrate, recombinant human ADAM10, selectivity assay for ADAM17 exosite inhibitor project, dose response (AID 743259);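 also: ADAM10 enzyme cleaving a FRET peptide substrate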
Beta-lactamase [17] = biological target: Beta-lactamase (Salmonella choleraesuis (strain SC-B67), UniProt Q5J463); experiment: Epi-absorbance-based counterscreen for selective VIM-2 inhibitors: dose response biochemical high throughput screening assay to identify inhibitors of TEM-1 serine-beta-lactamase.
Chain of Beta-lactamase (Salmonella choleraesuis (strain SC-B67), UniProt Q5J463) (Q5J463 whole entry): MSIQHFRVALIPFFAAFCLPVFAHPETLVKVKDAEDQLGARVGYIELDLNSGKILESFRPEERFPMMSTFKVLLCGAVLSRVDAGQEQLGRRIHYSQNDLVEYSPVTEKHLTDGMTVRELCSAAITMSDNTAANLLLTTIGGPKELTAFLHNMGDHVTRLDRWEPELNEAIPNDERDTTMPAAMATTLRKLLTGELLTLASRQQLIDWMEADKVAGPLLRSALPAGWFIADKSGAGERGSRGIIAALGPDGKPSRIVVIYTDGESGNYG

Beta-lactamase [18] = biological target: T3, Beta-lactamase (Pseudomonas aeruginosa, UniProt Q79MP6); experiment: inhibition of IMP-1 beta-lactamase activity – biochemical, epi-absorbance, selectivity assay for VIM-2 inhibitor project, dose response (AID 1920)
T3 sequence (Q79MP6 whole entry): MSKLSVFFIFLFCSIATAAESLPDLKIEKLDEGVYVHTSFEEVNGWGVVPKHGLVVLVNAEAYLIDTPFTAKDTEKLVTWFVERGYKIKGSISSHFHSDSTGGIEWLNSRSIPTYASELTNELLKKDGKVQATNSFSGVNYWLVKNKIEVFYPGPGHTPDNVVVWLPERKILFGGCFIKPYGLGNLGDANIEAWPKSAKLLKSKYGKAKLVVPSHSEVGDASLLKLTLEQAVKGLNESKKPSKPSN

Beta-lactamase [19] = biological target: T3, Beta-lactamase; experiment: […] counterscreen for selective VIM-2 inhibitors: dose response biochemical high throughput screening assay to identify inhibitors of IMP-1 metallo-beta-lactamase.
[20] = biological target: DNA dC->dU-editing enzyme APOBEC-3G (Homo sapiens, UniProt Q9HC16); experiment: Dose Response confirmation of small molecule APOBEC3G DNA Deaminase Inhibitors via a fluorescence-based single-stranded DNA deaminase assay. [Related pubchem assays (depositor defined):AID493012, AID493028]; assay type: functional
[21] = biological target: T4, Endoribonuclease toxin MazF (Escherichia coli K-12, UniProt P0AE70); experiment: activation of MazEF endoribonuclease cleavage – biochemical, fluorescence, single-stranded RNA substrate, uHTS hits, dose response (AID 588481); assay type: functional
T4 sequence (P0AE70 whole entry): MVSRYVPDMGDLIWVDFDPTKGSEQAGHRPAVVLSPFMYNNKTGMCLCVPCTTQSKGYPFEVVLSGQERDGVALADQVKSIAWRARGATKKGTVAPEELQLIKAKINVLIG

[22] = biological target: T4, Endoribonuclease toxin MazF; experiment: substrate-only fluorescence increase artefacts – biochemical, single-stranded RNase substrate, counter-screen for MazEF activator project, dose response (AID 588502); assay type: functional
[23] = reduction of Shn3 3'UTR-driven luciferase in osteoblasts – cell-based, Clone20 osteoblasts, firefly luciferase, cherry-picked, dose response (AID 624132); assay type: functional;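 also: firefly luciferase luminescence from reporter carrying the Shn3 3'UTR in osteoblasts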
[24] = loss of viability in HepG2 cells – cell-based, CellTiter-Glo, cherry-picked, cytotoxicity control for Shn3 inhibitor project, dose response (AID 624134); assay type: functional
[25] = non-specific 3'UTR reporter inhibition in Clone20-Shn3RL – cell-based, Renilla luciferase, cherry-picked, counter-screen for Shn3 inhibitor project, dose response (AID 624133); assay type: functional
[26] = potency of ADAM10 substrate cleavage blockers – biochemical, QFRET, dose response (AID 743254);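 also: ADAM10 enzyme with the DM2 quenched FRET peptide as substrate; EDANS fluorescence gain as the protease cuts the substrate; inhibitor potency against ADAM10 proteolytic activity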
[27] = biological target: T2, Disintegrin and metalloproteinase domain-containing protein 17; experiment: inhibition of ADAM17 substrate cleavage – biochemical, quenched FRET substrate, counter-screen for ADAM10 exosite inhibitor project, dose response (AID 743253)
[28] = biological target: Mitogen-activated protein kinase 9 (Homo sapiens, UniProt P45984); assay type: functional;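 also: value from a kinome panel profiling assay, MAPK9 panel entry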
Chain of Mitogen-activated protein kinase 9 (P45984 whole entry): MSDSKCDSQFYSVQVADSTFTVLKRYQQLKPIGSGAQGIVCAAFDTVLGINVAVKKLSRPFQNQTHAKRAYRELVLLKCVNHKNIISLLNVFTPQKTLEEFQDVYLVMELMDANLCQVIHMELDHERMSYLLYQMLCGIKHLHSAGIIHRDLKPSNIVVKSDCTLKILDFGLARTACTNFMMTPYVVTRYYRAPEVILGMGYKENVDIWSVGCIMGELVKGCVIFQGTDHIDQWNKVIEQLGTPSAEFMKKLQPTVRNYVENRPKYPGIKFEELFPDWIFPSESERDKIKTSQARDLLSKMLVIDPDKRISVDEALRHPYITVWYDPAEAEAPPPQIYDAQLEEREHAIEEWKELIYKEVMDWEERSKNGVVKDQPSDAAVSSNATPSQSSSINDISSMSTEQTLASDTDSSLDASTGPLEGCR

[29] = biological target: Dual specificity protein kinase CLK2 (Homo sapiens, UniProt P49760); assay type: functional
[30] = biological target: Dual specificity protein kinase CLK4 (Homo sapiens, UniProt Q9HAZ1); assay type: functional
[31] = biological target: Dual specificity tyrosine-phosphorylation-regulated kinase 1A (Homo sapiens, UniProt Q13627); assay type: functional;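 also: measured against DYRK1A as one member of a broad kinome profiling panel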
[32] = biological target: Hepatocyte nuclear factor 4-alpha (Homo sapiens, UniProt P41235); assay type: functional, cell-based;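 also: biochemical luminescence-based dose-response counterscreen measuring inhibition of HNF4 dimerization, run alongside a screen for blockers of ABHD5–perilipin-5 interaction; split luciferase complementation of HNF4 fusion proteins in cell lysate measuring dimerization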
Chain of Hepatocyte nuclear factor 4-alpha (P41235 whole entry, the tested form may be a part): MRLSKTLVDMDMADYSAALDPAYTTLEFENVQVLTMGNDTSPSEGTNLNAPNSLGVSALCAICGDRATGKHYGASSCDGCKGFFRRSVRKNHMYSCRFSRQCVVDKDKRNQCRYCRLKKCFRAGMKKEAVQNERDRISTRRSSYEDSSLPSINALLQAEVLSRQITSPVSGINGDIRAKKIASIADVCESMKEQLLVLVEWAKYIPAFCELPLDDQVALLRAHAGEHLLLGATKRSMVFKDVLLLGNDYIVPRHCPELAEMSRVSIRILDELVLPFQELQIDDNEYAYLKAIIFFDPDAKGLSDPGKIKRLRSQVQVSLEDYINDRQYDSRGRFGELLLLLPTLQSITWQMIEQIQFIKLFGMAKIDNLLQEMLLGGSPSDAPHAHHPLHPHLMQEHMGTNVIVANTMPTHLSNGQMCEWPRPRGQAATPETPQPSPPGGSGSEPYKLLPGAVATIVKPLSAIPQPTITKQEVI

O=C(CSc1ncccc1-c1nc2ccccc2[nH]1)N1CCc2ccccc21
EC50 [1]: 15.1 µM (active)
EC50 [2]: 4.81 µM (active)
EC50 (H4): 21.1 µM (inconclusive)
AC50 [3]: 59.9 µM (active)

O=C(/C=C/c1ccc(N2CCCCC2)c([N+](=O)[O-])c1)c1ccc(O)cc1
AC50 [4]: 28.1 µM (active)

Cc1ccn2cc(-c3ccc(NC(=O)c4ccco4)cc3)nc2c1
AC50 [5]: > 52 µM (inactive)

Cc1ccc(C)c(OCCn2cc(/C=C(/C#N)C(=O)NCC3CCCO3)c3ccccc32)c1 (stereo unspecified)
IC50 [6]: 27.5 µM (active)
IC50 [7]: > 100 µM (inactive)
IC50 (Prothrombin): 45.4 µM (active)

COC(=O)c1ccc(NC(=O)c2cn(-c3ccccc3)nc2-c2ccncc2)cc1
EC50 [8]: 1.9 µM (active)
EC50 [9]: > 60 µM (not active)
AC50 [10]: 4.18 µM (active)
IC50 [11]: 17.2 µM (inactive)

N=C(NOC(=O)c1ccccc1Cl)c1ccccc1
IC50 [12]: > 67.6 µM (inactive)
EC50 (cells): > 67.6 µM (inactive)

Cc1cc(N2CCCC2)c(F)cc1/C=C\[N+](=O)[O-]
IC50 [6]: 14.7 µM (active)
IC50 [7]: > 100 µM (inactive)
IC50 (Prothrombin): 20 µM (active)

COC(=O)c1sc(N)c(C(=O)OC)c1CSc1nnc(-c2ccccc2Cl)n1C
AC50 [13]: 1.07 µM (active)

Oc1ccc2cc(SSc3ccc4cc(O)ccc4c3)ccc2c1
AC50 [14]: 56.2 µM (inconclusive)

O=c1c(-c2ccc([N+](=O)[O-])cc2)coc2c(O)c(O)ccc12
IC50 (Large T antigen): 13.8 µM (active)
CC50 (Vero): 21.4 µM (active)

CCCn1c(SCC(=O)N2c3ccccc3Sc3ccccc32)nc2ccccc21
EC50 [8]: 2.9 µM (active)
EC50 [9]: > 60 µM (not active)
IC50 [15]: > 69.5 µM (inactive)
IC50 [16]: 19.7 µM (inactive)

CCCCn1c(S)nnc1-c1nn(C)c(C)c1Cl
IC50 (Beta-lactamase [17]): > 59.6 µM (inactive)
IC50 (Beta-lactamase [18]): > 59.6 µM (inactive)
IC50 (Beta-lactamase [19]): > 59.6 µM (inactive)
IC50 [20]: 12.5 µM (active)

Cc1ccc(NC(=O)c2ccc(NCc3ccco3)c([N+](=O)[O-])c2)cc1Cl
EC50 [21]: > 99 µM (inactive)
EC50 [22]: > 99 µM (inactive)
IC50 [11]: 33.6 µM (inactive)

C=CCC[C@H](Cc1ccc(F)cc1)C(=O)OC[C@H](Cc1c[nH]c2ccccc12)NC(=O)[C@@H](CC=C)CC(=O)N[C@H](CO)Cc1ccccc1
AC50 [23]: 4.44 µM (active)
AC50 [24]: 17 µM (active)
AC50 [25]: 15.8 µM (active)
IC50 [26]: > 69.5 µM (inactive)
IC50 [15]: > 69.5 µM (inactive)
IC50 [16]: 58.9 µM (inactive)
IC50 [27]: > 69.5 µM (inactive)

Oc1nc2ccccc2n1C1CCN(C(c2ccccc2OC(F)(F)F)c2nnnn2-c2ccc3c(c2)OCCO3)CC1 (stereo unspecified)
IC50 [26]: > 69.5 µM (inactive)
AC50 [3]: 37.1 µM (active)

O=C(COc1ccc2ccc(=O)oc2c1)N1CCN(c2ccc(F)cc2)CC1
AC50 [13]: 1 µM (active)

COc1cc(Cl)c(OC)cc1N
AC50 [14]: 56.2 µM (inconclusive)

CC(C)(C)c1cc(NC(=O)c2cc3ccccc3s2)n(-c2ccc(OCC(=O)O)cc2)n1
Ki [28]: 3.98 µM (active)

O=c1[nH]c2ccc(Br)cc2n1-c1cc(Cl)c(O)cc1O
Ki [29]: 6.31 µM (active)
Ki [30]: 3.16 µM (active)
Ki [31]: 5.01 µM (active)

COc1ccc(NC(=O)C(c2cccc3ccccc23)n2c(=O)c(-c3ccco3)nc3ccccc32)cc1 (stereo unspecified)
IC50 [32]: 25.5 µM (inactive)

COc1ccc(NC(=O)C(c2ccccc2)n2c(=O)c(-c3ccco3)nc3ccccc32)cc1 (stereo unspecified)
IC50 [32]: 12.8 µM (inactive)

C[C@H](CO)N1C[C@H](C)[C@@H](CN(C)Cc2cccnc2)Oc2cc(C#CC3CCCCC3)ccc2S1(=O)=O
AC50 [4]: 6.45 µM (active)

— ChEMBL document CHEMBL1201862, “PubChem BioAssay data set” (2004)
